Assay results as given in US8772448B2, “Peptides immunoreactive with autoantibodies from patients suffering from rheumatoid arthritis” (Stichting Voor de Technische Wetenschappen, priority 1996, dated 2014).
Where no end group is shown, it is not given here. [ ]: non-standard residue; d: D form. Cit = NC(=O)NCCC[C@H](N)C(=O)O

Key:
[1] = tested on: antibodies in PM/DM (polymyositis/dermatomyositis) sera; assay: ELISA of coupled peptides with PM/DM sera; type: binding, human; details: n = 50
Method: (§1) Detection by Means of ELISA
(§2) Via an N-oxysuccinimide surface the peptides were covalently coupled to the wells of 96-well microtitre plates (Costar amide binding plates) in an amount of 1 ? g/well. Coupling took place for 16 hours at 4EC and pH 9.0. The plates were blocked for 1 hour with 2% bovine serum albumin. The sera were diluted 200 times in a diluent (0.3% BSA, 350 mM NaCl, 10 mM Tris-HCl pH 7.6, 1% vol./vol. Triton X-100, 0.5% w./vol. Na-deoxycholate, 0.1% SDS) supplemented with 10% normal rabbit serum, and incubated for one hour at room temperature. After washing the plates (3 times with PBS containing 0.05 by vol. of Tween® 20), 100 ? l of antihuman IgG conjugated with peroxidase (Dako P214), 1000 times diluted in dilution buffer, was added to the wells. After incubation for 1 hour at room temperature, the plates were washed 3 times with PBS/Tween®, and bound antibodies were detected with tetramethyl benzidine as a substrate. After 10 minutes the reaction was stopped by adding 100 ? l of 2 M sulphuric acid per well. Readout occurred at 450 nm. Sera having an OD450 of 0.2, after deduction of the blank for the respective serum (a well without a coupled peptide), were considered to be positive.

[2] = tested on: autoimmune antibodies in sera from patients suffering from rheumatoid arthritis; assay: ELISA of coupled peptides with RA sera; type: binding, human; details: n = 134 RA sera, positive = OD450 of 0.2 after deduction of blank; for RA sera: number of positive sera: sera diluted 200 times
Method: as §1
as §2, with “positive. […]” for “positive.”

[3] = tested on: antibodies in SSC (systemic scleroderma) sera; assay: ELISA of coupled peptides with SSC sera; type: binding, human; details: n = 50
Method: as §1, §2

[4] = tested on: antibodies in sera from patients suffering from various infectious diseases; assay: ELISA with sera from patients suffering from various infectious diseases; type: binding, human; details: 308 tested sera
[5] = tested on: recombinant monoclonal antibody described by applicants; assay: Reactivity of peptides with the recombinant monoclonal antibody; type: binding
[6] = tested on: antibodies in SLE (systemic lupus erythematosus) sera; assay: ELISA of coupled peptides with SLE sera; type: binding, human; details: n = 50
Method: as §1, §2

[7] = tested on: antibodies in control sera from patients suffering from rheumatic diseases other than RA; assay: ELISA of coupled peptides with control sera; type: binding, human; details: for control sera (%) positive / control sera: number of positive sera: n = 154, rheumatic diseases other than RA
Method: as §1, §2
In total, 288 sera from patients suffering from rheumatoid diseases were used, 132 of which were from patients suffering from rheumatoid arthritis.

[8] = tested on: antibodies in pSS (primary Sjögren's syndrome) sera; assay: ELISA of coupled peptides with pSS sera; type: binding, human; details: n = 50
Method: as §1, §2

For “SHQESTXGRSRGRSGRSGS (SHQEST[Cit]GRSRGRSGRSGS-NH2; N-terminus assumed; SMILES C[C@@H](O)[C@H](NC(=O)[C@H](CO)NC(=O)[C@H](CCC(=O)O)NC(=O)[C@H](CCC(N)=O)NC(=O)[C@H](Cc1c[nH]cn1)NC(=O)[C@@H](N)CO)C(=O)N[C@@H](CCCNC(N)=O)C(=O)NCC(=O)N[C@@H](CCCNC(=N)N)C(=O)N[C@@H](CO)C(=O)N[C@@H](CCCNC(=N)N)C(=O)NCC(=O)N[C@@H](CCCNC(=N)N)C(=O)N[C@@H](CO)C(=O)NCC(=O)N[C@@H](CCCNC(=N)N)C(=O)N[C@@H](CO)C(=O)NCC(=O)N[C@@H](CO)C(N)=O) [cfc1]”, the “PM/DM: number of positive sera” value [1] was 0, the “RA sera (%) positive” value [2] was 36% and the “RA sera (%) positive” value ([2]; listed as Formula II) was “about 36%”. For the same sequence, the “RA sera: number of positive sera” value [2] was 49, the “SSC: number of positive sera” value [3] was 0 and the “infectious disease sera: number positive” value [4] was 9. The “specificity in respect of infectious disease sera” value [4] was 97%, the “reactivity with the recombinant monoclonal antibody” value [5] was “reactive” and the “SLE (%) positive” value [6] was 2%. The “SLE: number of positive sera” value [6] was 1, the “control sera (%) positive” value [7] was 0.6% and the “control sera: number of positive sera” value [7] was 1. The “percentage of false positives” value ([7]; other autoimmune diseases and healthy individuals) was “less than 2%” and the “pSS: number of positive sera” value [8] was 0.

In the case of “SHQESTRGRSRGXSGRSGS (SHQESTRGRSRG[Cit]SGRSGS-NH2; N-terminus assumed; SMILES C[C@@H](O)[C@H](NC(=O)[C@H](CO)NC(=O)[C@H](CCC(=O)O)NC(=O)[C@H](CCC(N)=O)NC(=O)[C@H](Cc1c[nH]cn1)NC(=O)[C@@H](N)CO)C(=O)N[C@@H](CCCNC(=N)N)C(=O)NCC(=O)N[C@@H](CCCNC(=N)N)C(=O)N[C@@H](CO)C(=O)N[C@@H](CCCNC(=N)N)C(=O)NCC(=O)N[C@@H](CCCNC(N)=O)C(=O)N[C@@H](CO)C(=O)NCC(=O)N[C@@H](CCCNC(=N)N)C(=O)N[C@@H](CO)C(=O)NCC(=O)N[C@@H](CO)C(N)=O) [cfc4]”, the “PM/DM: number of positive sera” value [1] is reported as 0, the “RA sera (%) positive” value [2] is reported as 24% and the “RA sera: number of positive sera” value [2] is reported as 32. The “SSC: number of positive sera” value [3] was 0, the “SLE: number of positive sera” value [6] was 0 and the “control sera (%) positive” value [7] was 1.3%. For the same sequence, the “control sera: number of positive sera” value [7] was 2 and the “pSS: number of positive sera” value [8] was 0.

With “SHQESTRGRSXGRSGRSGS (SHQESTRGRS[Cit]GRSGRSGS-NH2; N-terminus assumed; SMILES C[C@@H](O)[C@H](NC(=O)[C@H](CO)NC(=O)[C@H](CCC(=O)O)NC(=O)[C@H](CCC(N)=O)NC(=O)[C@H](Cc1c[nH]cn1)NC(=O)[C@@H](N)CO)C(=O)N[C@@H](CCCNC(=N)N)C(=O)NCC(=O)N[C@@H](CCCNC(=N)N)C(=O)N[C@@H](CO)C(=O)N[C@@H](CCCNC(N)=O)C(=O)NCC(=O)N[C@@H](CCCNC(=N)N)C(=O)N[C@@H](CO)C(=O)NCC(=O)N[C@@H](CCCNC(=N)N)C(=O)N[C@@H](CO)C(=O)NCC(=O)N[C@@H](CO)C(N)=O) [cfc3]” the “PM/DM (%) positive” value [1] was 2%, the “PM/DM: number of positive sera” value [1] was 1 and the “RA sera (%) positive” value [2] was 28%. The “RA sera: number of positive sera” value [2] was 37, the “SSC: number of positive sera” value [3] was 0 and the “SLE: number of positive sera” value [6] was 0. The “control sera (%) positive” value [7] was 0.6%, the “control sera: number of positive sera” value [7] was 2 and the “pSS (%) positive” value [8] was 2%. For the same sequence, the “pSS: number of positive sera” value [8] was 1.
